Data: ChEMBL document CHEMBL2202954, “The effect of PLC-γ2 inhibitors on the growth of human tumour cells” (2012)

How the values were obtained:
Type in all cases: functional
OVCAR-4 = assay: Cytotoxicity against human OVCAR4 cells assessed as cellular growth at 10 uM by SRB assay
IGROV-1 = assay: Cytotoxicity against human IGROV1 cells assessed as cellular growth at 10 uM by SRB assay
RXF 393 = assay: Cytotoxicity against human RXF393 cells assessed as cellular growth at 10 uM by SRB assay
Malme-3M = assay: Cytotoxicity against human MALME-3M cells assessed as cellular growth at 10 uM by SRB assay
SNB-19 = assay: Cytotoxicity against human SNB19 cells assessed as cellular growth at 10 uM by SRB assay
MDA-MB-468 = assay: Cytotoxicity against human MDA-MB-468 cells assessed as cellular growth at 10 uM by SRB assay
SNB-75 = assay: Cytotoxicity against human SNB75 cells assessed as cellular growth at 10 uM by SRB assay
HCT-116 = assay: Cytotoxicity against human HCT116 cells assessed as cellular growth at 10 uM by SRB assay
A549 = assay: Cytotoxicity against human A549 cells assessed as cellular growth at 10 uM by SRB assay
[1] = Cytotoxicity against human NCI-ADR-RES cells assessed as cellular growth at 10 uM by SRB assay
MCF7 = assay: Cytotoxicity against human MCF7 cells assessed as cellular growth at 10 uM by SRB assay
SF-268 = assay: Cytotoxicity against human SF268 cells assessed as cellular growth at 10 uM by SRB assay
SN12C = assay: Cytotoxicity against human SN12C cells assessed as cellular growth at 10 uM by SRB assay
HL-60(TB) = assay: Cytotoxicity against human HL-60(TB) cells assessed as cellular growth at 10 uM by SRB assay
NCI-H460 = assay: Cytotoxicity against human NCI-H460 cells assessed as cellular growth at 10 uM by SRB assay
CCRF-CEM = assay: Cytotoxicity against human CCRF-CEM cells assessed as cellular growth at 10 uM by SRB assay
M14 = assay: Cytotoxicity against human M14 cells assessed as cellular growth at 10 uM by SRB assay
NCI-H522 = assay: Cytotoxicity against human NCI-H522 cells assessed as cellular growth at 10 uM by SRB assay
A498 = assay: Cytotoxicity against human A498 cells assessed as cellular growth at 10 uM by SRB assay
U-251 = assay: Cytotoxicity against human U251 cells assessed as cellular growth at 10 uM by SRB assay
UACC-257 = assay: Cytotoxicity against human UACC257 cells assessed as cellular growth at 10 uM by SRB assay
HOP-62 = assay: Cytotoxicity against human HOP62 cells assessed as cellular growth at 10 uM by SRB assay
T47D = assay: Cytotoxicity against human T47D cells assessed as cellular growth at 10 uM by SRB assay
SK-MEL-28 = assay: Cytotoxicity against human SK-MEL-28 cells assessed as cellular growth at 10 uM by SRB assay
CAKI-1 = assay: Cytotoxicity against human Caki1 cells assessed as cellular growth at 10 uM by SRB assay
HCC 2998 = assay: Cytotoxicity against human HCC2998 cells assessed as cellular growth at 10 uM by SRB assay
ACHN = assay: Cytotoxicity against human ACHN cells assessed as cellular growth at 10 uM by SRB assay
SW-620 = assay: Cytotoxicity against human SW620 cells assessed as cellular growth at 10 uM by SRB assay
SK-OV-3 = assay: Cytotoxicity against human SKOV3 cells assessed as cellular growth at 10 uM by SRB assay
OVCAR-5 = assay: Cytotoxicity against human OVCAR5 cells assessed as cellular growth at 10 uM by SRB assay
NCI-H322M = assay: Cytotoxicity against human NCI-H322M cells assessed as cellular growth at 10 uM by SRB assay
OVCAR-3 = assay: Cytotoxicity against human OVCAR3 cells assessed as cellular growth at 10 uM by SRB assay
K562 = assay: Cytotoxicity against human K562 cells assessed as cellular growth at 10 uM by SRB assay
COLO 205 = assay: Cytotoxicity against human COLO205 cells assessed as cellular growth at 10 uM by SRB assay
MOLT-4 = assay: Cytotoxicity against human MOLT4 cells assessed as cellular growth at 10 uM by SRB assay
HOP-92 = assay: Cytotoxicity against human HOP92 cells assessed as cellular growth at 10 uM by SRB assay
TK-10 = assay: Cytotoxicity against human TK10 cells assessed as cellular growth at 10 uM by SRB assay
LOX IMVI = assay: Cytotoxicity against human LOXIMVI cells assessed as cellular growth at 10 uM by SRB assay
Hs-578T = assay: Cytotoxicity against human Hs578T cells assessed as cellular growth at 10 uM by SRB assay
PC-3 = assay: Cytotoxicity against human PC3 cells assessed as cellular growth at 10 uM by SRB assay
MDA-MB-231 = assay: Cytotoxicity against human MDA-MB-231 cells assessed as cellular growth at 10 uM by SRB assay
BT-549 = assay: Cytotoxicity against human BT549 cells assessed as cellular growth at 10 uM by SRB assay
KM12 = assay: Cytotoxicity against human KM12 cells assessed as cellular growth at 10 uM by SRB assay
SK-MEL-2 = assay: Cytotoxicity against human SK-MEL-2 cells assessed as cellular growth at 10 uM by SRB assay
UACC-62 = assay: Cytotoxicity against human UACC62 cells assessed as cellular growth at 10 uM by SRB assay
OVCAR-8 = assay: Cytotoxicity against human OVCAR8 cells assessed as cellular growth at 10 uM by SRB assay
HT-29 = assay: Cytotoxicity against human HT-29 cells assessed as cellular growth at 10 uM by SRB assay
SF-295 = assay: Cytotoxicity against human SF295 cells assessed as cellular growth at 10 uM by SRB assay
SF-539 = assay: Cytotoxicity against human SF539 cells assessed as cellular growth at 10 uM by SRB assay
786-0 = assay: Cytotoxicity against human 786-0 cells assessed as cellular growth at 10 uM by SRB assay
EKVX = assay: Cytotoxicity against human EKVX cells assessed as cellular growth at 10 uM by SRB assay
MDA-MB-435 = assay: Cytotoxicity against human MDA-MB-435 cells assessed as cellular growth at 10 uM by SRB assay
UO-31 = assay: Cytotoxicity against human UO31 cells assessed as cellular growth at 10 uM by SRB assay
RPMI-8226 = assay: Cytotoxicity against human RPMI8226 cells assessed as cellular growth at 10 uM by SRB assay
NCI-H226 = assay: Cytotoxicity against human NCI-H226 cells assessed as cellular growth at 10 uM by SRB assay
SK-MEL-5 = assay: Cytotoxicity against human SK-MEL-5 cells assessed as cellular growth at 10 uM by SRB assay
HCT-15 = assay: Cytotoxicity against human HCT15 cells assessed as cellular growth at 10 uM by SRB assay
NCI-H23 = assay: Cytotoxicity against human NCI-H23 cells assessed as cellular growth at 10 uM by SRB assay

SMILES: Clc1ccccc1Nc1nnc(-c2ccncc2)s1
- Activity (OVCAR-4): 94.51%
- Activity (IGROV-1): 100.52%
- Activity (RXF 393): 107.3%
- Activity (Malme-3M): 108.85%
- Activity (SNB-19): 99.81%
- Activity (MDA-MB-468): 110.42%
- Activity (SNB-75): 105.58%
- Activity (HCT-116): 101.59%
- Activity (A549): 94.98%
- Activity [1]: 101.59%
- Activity (MCF7): 96.02%
- Activity (SF-268): 104.7%
- Activity (SN12C): 86%
- Activity (HL-60(TB)): 79.12%
- Activity (NCI-H460): 99.69%
- Activity (CCRF-CEM): 95.96%
- Activity (M14): 103.83%
- Activity (NCI-H522): 98.62%
- Activity (A498): 92.09%
- Activity (U-251): 102.87%
- Activity (UACC-257): 107.89%
- Activity (HOP-62): 117.96%
- Activity (T47D): 89.46%
- Activity (SK-MEL-28): 100.34%
- Activity (CAKI-1): 90.5%
- Activity (HCC 2998): 106.44%
- Activity (ACHN): 104.09%
- Activity (SW-620): 91.55%
- Activity (SK-OV-3): 104.92%
- Activity (OVCAR-5): 106.94%
- Activity (NCI-H322M): 93.72%
- Activity (OVCAR-3): 109.8%
- Activity (K562): 101.4%
- Activity (COLO 205): 114.33%
- Activity (MOLT-4): 93.42%
- Activity (HOP-92): 93.87%
- Activity (TK-10): 110.92%
- Activity (LOX IMVI): 110.09%
- Activity (Hs-578T): 94.94%
- Activity (PC-3): 97.24%
- Activity (MDA-MB-231): 107.89%
- Activity (BT-549): 90.37%
- Activity (KM12): 107.17%
- Activity (SK-MEL-2): 106.68%
- Activity (UACC-62): 95.3%
- Activity (OVCAR-8): 100.07%
- Activity (HT-29): 105.3%
- Activity (SF-295): 88.68%
- Activity (SF-539): 107.62%
- Activity (786-0): 80.21%
- Activity (EKVX): 91.68%
- Activity (MDA-MB-435): 93.62%
- Activity (UO-31): 90.67%
- Activity (RPMI-8226): 89.16%
- Activity (NCI-H226): 100.58%
- Activity (SK-MEL-5): 97.75%
- Activity (HCT-15): 112.25%
- Activity (NCI-H23): 102%
